Source: ChEMBL document CHEMBL1201862, “PubChem BioAssay data set” (2004)
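A five-concentration, 48-hour dose response in 96-well plates underlies each endpoint, interpolated linearly between surrounding concentrations. GI50 marks 50% less growth.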 Active and inactive are the calls of the source. Rule as the data show it: active = GI50 up to about 1.1 µM and inactive = higher.

Legend:
Assay in all cases: NCI anticancer screen, dose series, 48 h
CCRF-CEM = system: CCRF-CEM
HCT-15 = system: HCT-15
NCI-H23 = system: NCI-H23
DMS-273 = system: DMS-273
K562 = system: K562
CAKI-1 = system: CAKI-1
OVCAR-8 = system: OVCAR-8
U-251 = system: U-251
SNB-75 = system: SNB-75
HOP-18 = system: HOP-18
HCC 2998 = system: HCC 2998
LXFL 529 = system: LXFL 529
HOP-92 = system: HOP-92
TK-10 = system: TK-10
HOP-62 = system: HOP-62
KM-20L2 = system: KM-20L2
UO-31 = system: UO-31
SK-MEL-5 = system: SK-MEL-5
KM12 = system: KM12
RXF 631 = system: RXF 631
IGROV-1 = system: IGROV-1
RPMI-8226 = system: RPMI-8226
SNB-19 = system: SNB-19
M14 = system: M14
OVCAR-4 = system: OVCAR-4
UACC-257 = system: UACC-257
SK-MEL-28 = system: SK-MEL-28
RXF 393 = system: RXF 393
SK-OV-3 = system: SK-OV-3
SW-620 = system: SW-620
OVCAR-5 = system: OVCAR-5
ACHN = system: ACHN
SF-295 = system: SF-295
LOX IMVI = system: LOX IMVI
SF-539 = system: SF-539
SF-268 = system: SF-268
A498 = system: A498
SNB-78 = system: SNB-78
MOLT-4 = system: MOLT-4
DLD-1 = system: DLD-1
M19-MEL = system: M19-MEL
A549 = system: A549
786-0 = system: 786-0
DMS-114 = system: DMS-114
EKVX = system: EKVX
HT-29 = system: HT-29
NCI-H460 = system: NCI-H460
OVCAR-3 = system: OVCAR-3
HL-60 = system: HL-60
XF498 = system: XF498
SR = system: SR
HCT-116 = system: HCT-116
NCI-H522 = system: NCI-H522
SN12C = system: SN12C
UACC-62 = system: UACC-62

CN(C)CCC(=O)N1CCc2c([nH]c3ccccc23)C1c1cccnc1 (stereo not given)
GI50 (CCRF-CEM): > 100 µM (inactive) | GI50 (HCT-15): > 100 µM | GI50 (NCI-H23): > 100 µM (inactive) | GI50 (DMS-273): > 100 µM (inactive) | GI50 (K562): > 100 µM (inactive) | GI50 (CAKI-1): > 100 µM (inactive) | GI50 (OVCAR-8): > 100 µM (inactive) | GI50 (U-251): > 100 µM (inactive) | GI50 (SNB-75): 78.3 µM (inactive) | GI50 (HOP-18): > 100 µM (inactive) | GI50 (HCC 2998): > 100 µM (inactive) | GI50 (LXFL 529): 34.9 µM (inactive) | GI50 (HOP-92): 36.3 µM (inactive) | GI50 (TK-10): > 100 µM (inactive) | GI50 (HOP-62): > 100 µM (inactive) | GI50 (KM-20L2): > 100 µM (inactive) | GI50 (UO-31): 41.6 µM (inactive) | GI50 (SK-MEL-5): > 100 µM (inactive) | GI50 (KM12): > 100 µM (inactive) | GI50 (RXF 631): > 100 µM (inactive) | GI50 (IGROV-1): > 100 µM (inactive) | GI50 (RPMI-8226): > 100 µM (inactive) | GI50 (SNB-19): > 100 µM (inactive) | GI50 (M14): > 100 µM (inactive) | GI50 (OVCAR-4): > 100 µM (inactive) | GI50 (UACC-257): 28.5 µM (inactive) | GI50 (SK-MEL-28): 54.2 µM (inactive) | GI50 (RXF 393): 192 nM (active) | GI50 (SK-OV-3): > 100 µM (inactive) | GI50 (SW-620): > 100 µM (inactive) | GI50 (OVCAR-5): > 100 µM (inactive) | GI50 (ACHN): > 100 µM (inactive) | GI50 (SF-295): > 100 µM (inactive) | GI50 (LOX IMVI): > 100 µM (inactive) | GI50 (SF-539): > 100 µM (inactive) | GI50 (SF-268): > 100 µM (inactive) | GI50 (A498): > 100 µM (inactive) | GI50 (SNB-78): > 100 µM (inactive) | GI50 (MOLT-4): > 100 µM (inactive) | GI50 (DLD-1): > 100 µM (inactive) | GI50 (M19-MEL): > 100 µM (inactive) | GI50 (A549): > 100 µM (inactive) | GI50 (786-0): > 100 µM (inactive) | GI50 (DMS-114): > 100 µM (inactive) | GI50 (EKVX): > 100 µM (inactive) | GI50 (HT-29): > 100 µM (inactive) | GI50 (NCI-H460): > 100 µM (inactive) | GI50 (OVCAR-3): > 100 µM (inactive) | GI50 (HL-60): > 100 µM (inactive) | GI50 (XF498): > 100 µM (inactive) | GI50 (SR): > 100 µM (inactive) | GI50 (HCT-116): > 100 µM (inactive) | GI50 (NCI-H522): > 100 µM (inactive) | GI50 (SN12C): > 100 µM (inactive) | GI50 (UACC-62): > 100 µM (inactive)
